Counter-ions that a name gives are not always drawn.

For the first experiment, the target named is human KDR protein in HEK-293 cells (Homo sapiens (Human), UniProt P35968). The experiment in a line: KDR Cell Assay (phospho-KDR in HEK-293 cells expressing inducible KDR). Format: cell-based. Conditions: pKDR Cell HEK 10% FBS IC50, HEK-293 cells expressing inducible KDR, VEGF stimulated. In outline: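 HEK-293 cells with inducible human KDR were treated with compound for 1 h in DMEM (0.25% DMSO final), then lysed. Phospho-KDR was quantified by Meso Scale immunoassay, expressed as percent of control, and IC50 taken where a 4-parameter logistic fit crossed 50 POC.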
Sequence of human KDR protein in HEK-293 cells (P35968 20-1356): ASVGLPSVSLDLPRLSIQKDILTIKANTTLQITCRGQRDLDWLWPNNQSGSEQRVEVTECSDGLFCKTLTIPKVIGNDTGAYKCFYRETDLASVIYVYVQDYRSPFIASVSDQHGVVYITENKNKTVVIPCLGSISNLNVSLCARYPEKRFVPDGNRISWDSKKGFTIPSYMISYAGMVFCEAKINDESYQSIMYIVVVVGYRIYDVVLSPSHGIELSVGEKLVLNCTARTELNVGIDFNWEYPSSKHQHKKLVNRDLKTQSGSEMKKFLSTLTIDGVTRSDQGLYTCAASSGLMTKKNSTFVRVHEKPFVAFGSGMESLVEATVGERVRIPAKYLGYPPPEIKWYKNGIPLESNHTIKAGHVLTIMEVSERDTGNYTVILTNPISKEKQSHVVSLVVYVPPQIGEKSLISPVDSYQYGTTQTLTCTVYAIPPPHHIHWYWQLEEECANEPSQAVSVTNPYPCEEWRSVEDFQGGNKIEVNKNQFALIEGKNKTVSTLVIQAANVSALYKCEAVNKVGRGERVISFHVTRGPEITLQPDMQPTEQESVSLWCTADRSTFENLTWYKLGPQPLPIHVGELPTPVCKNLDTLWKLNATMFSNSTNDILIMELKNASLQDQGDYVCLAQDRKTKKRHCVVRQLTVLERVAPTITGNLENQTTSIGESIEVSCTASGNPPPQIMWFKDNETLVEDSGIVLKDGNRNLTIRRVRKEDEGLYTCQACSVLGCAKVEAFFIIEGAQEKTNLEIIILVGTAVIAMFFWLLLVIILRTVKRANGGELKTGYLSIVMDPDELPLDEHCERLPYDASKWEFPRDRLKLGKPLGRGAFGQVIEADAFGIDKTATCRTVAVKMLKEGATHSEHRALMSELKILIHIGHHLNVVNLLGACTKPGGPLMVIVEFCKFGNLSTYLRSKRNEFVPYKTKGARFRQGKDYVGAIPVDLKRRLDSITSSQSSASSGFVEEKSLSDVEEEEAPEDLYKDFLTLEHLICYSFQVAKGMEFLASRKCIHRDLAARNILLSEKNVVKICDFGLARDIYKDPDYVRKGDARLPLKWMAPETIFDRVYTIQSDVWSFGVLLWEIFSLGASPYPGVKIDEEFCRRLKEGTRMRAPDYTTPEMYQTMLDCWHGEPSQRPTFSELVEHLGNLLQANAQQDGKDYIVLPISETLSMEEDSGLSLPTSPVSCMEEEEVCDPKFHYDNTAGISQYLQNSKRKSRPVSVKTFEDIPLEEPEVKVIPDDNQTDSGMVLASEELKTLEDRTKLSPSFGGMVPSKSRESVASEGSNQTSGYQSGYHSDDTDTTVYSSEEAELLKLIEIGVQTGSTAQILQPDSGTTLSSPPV
Consider `CN1CCC2(CCCN(c3ccc(-c4cc(-c5cnn(C)c5)cn5ncc(C#N)c45)cn3)C2)CC1` [Example 555, 6-(1-methyl-1H-pyrazol-4-yl)-4-(6-(9-methyl-2,9-diazaspiro[5.5]undecan-2-yl)pyridin-3-yl)pyrazolo[1,5-a]pyridine-3-carbonitrile], for which it took 1.03 µM to reach half-maximal inhibition (IC50). In other words, the single-digit micromolar range. In turn, `Cc1cnn2cc(-c3cnn(C)c3)cc(-c3ccc(N4CCN(C(=O)[C@H](O)c5ccccc5)CC4)nc3)c12` [Example 652, (R)-2-hydroxy-1-(4-(5-(3-methyl-6-(1-methyl-1H-pyrazol-4-yl)pyrazolo[1,5-a]pyridin-4-yl)pyridin-2-yl)piperazin-1-yl)-2-phenyl ethan-1-one] had an IC50 of 1.7 µM. For the compound `CO[C@H]1CCN(C(=O)N2CCN(c3ccc(-c4cc(-c5cnn(C)c5)cn5ncc(Cl)c45)cn3)CC2)C1` [Example 645, (S)-(4-(5-(3-chloro-6-(1-methyl-1H-pyrazol-4-yl)pyrazolo[1,5-a]pyridin-4-yl)pyridin-2-yl)piperazin-1-yl)(3-methoxypyrrolidin-1-yl)methanone], the IC50 came to 1.68 µM.

As to `Cn1cc(-c2cc(-c3ccc(C4CCCN(Cc5ccccc5)C4)nc3)c3c(C#N)cnn3c2)cn1` (centres unmarked) [Example 581, 4-(6-(1-benzylpiperidin-3-yl)pyridine-3-yl)-6-(1-methyl-1H-pyrazol-4-yl)pyrazolo[1,5-a]pyridine-3-carbonitrile], it took 0.671 µM to reach half-maximal inhibition (IC50). `CN(C)C(=O)N1CC2(CCN(c3ccc(-c4cc(-c5cnn(C)c5)cn5ncc(C#N)c45)cn3)CC2)C1` [Example 501, 7-(5-(3-cyano-6-(1-methyl-1H-pyrazol-4-yl)pyrazolo[1,5-a]pyridin-4-yl)pyridin-2-yl)-N,N-dimethyl-2,7-diazaspiro[3.5]nonane-2-carboxamide] showed an IC50 of 0.554 µM. `N#Cc1cnn2cc(-c3cnn(C4CNC4)c3)cc(-c3ccc(N4CCN(Cc5ccccc5)CC4)nc3)c12` [Example 595, 6-(1-(azetidin-3-yl)-1H-pyrazol-4-yl)-4-(6-(4-benzylpiperazin-1-yl)pyridin-3-yl)pyrazolo[1,5-a]pyridine-3-carbonitrile dihydrochloride] gave an IC50 of 0.217 µM. The same measure, in the same setting: with `Cn1cc(-c2cc(-c3ccc(N4CCN(Cc5ccc(F)cc5F)CC4)nc3)c3c(C#N)cnn3c2)cn1` [Example 426, 4-(6-(4-(2,4-difluorobenzyl)piperazin-1-yl)pyridin-3-yl)-6-(1-methyl-1H-pyrazol-4-yl)pyrazolo[1,5-a]pyridine-3-carbonitrile] the figure was 1.25 µM; with `Cn1cc(-c2cc(-c3ccc(N4CCC5(CC4)CCN5C(=O)OC(C)(C)C)nc3)c3c(C#N)cnn3c2)cn1` [Example 515, tert-butyl 7-(5-(3-cyano-6-(1-methyl-1H-pyrazol-4-yl)pyrazolo[1,5-a]pyridin-4-yl)pyridin-2-yl)-1,7-diazaspiro[3.5]nonane-1-carboxylate], 0.284 µM; with `Cn1cnc(CN2CCN(c3ccc(-c4cc(-c5cnn(C)c5)cn5ncc(C#N)c45)cn3)CC2)c1` [Example 449, 4-(6-(4-((1-methyl-1H-imidazol-4-yl)methyl)piperazin-1-yl)pyridin-3-yl)-6-(1-methyl-1H-pyrazol-4-yl)pyrazolo[1,5-a]pyridine-3-carbonitrile], 1.34 µM.

On to `COc1ccccc1N(C)C(=O)N1CCN(c2ccc(-c3cc(-c4cnn(C)c4)cn4ncc(C#N)c34)cn2)CC1` [Example 382, 4-(5-(3-cyano-6-(1-methyl-1H-pyrazol-4-yl)pyrazolo[1,5-a]pyridin-4-yl)pyridine-2-yl)-N-(2-methoxyphenyl)-N-methylpiperazine-1-carboxamide], for which 1.71 µM corresponded to half-maximal inhibition (IC50). For the compound `Cn1cc(-c2cc(-c3ccc(N4CCCC5(CCCN5)C4)nc3)c3c(C#N)cnn3c2)cn1` (centres unmarked) [Example 542, 4-(6-(1,7-diazaspiro[4.5]decan-7-yl)pyridin-3-yl)-6-(1-methyl-1H-pyrazol-4-yl)pyrazolo[1,5-a]pyridine-3-carbonitrile dihydrochloride], the IC50 turned out to be 0.222 µM.

Still in this experiment, the particulars now being: pKDR Cell HEK 10% FBS IC50, HEK-293 cells expressing inducible KDR, VEGF stimulated, 10% FBS.
The compound `Cn1cc(-c2cc(-c3ccc(N4CC[C@@H](C(=O)N5CCCC5)C4)nc3)c3c(C#N)cnn3c2)cn1` [Example 260, (R)-6-(1-methyl-1H-pyrazol-4-yl)-4-(6-(3-(pyrrolidine-1-carbonyl)pyrrolidin-1-yl)pyridin-3-yl)pyrazolo[1,5-a]pyridine-3-carbonitrile] had an IC50 not below 5 µM. The same measure, in the same setting: with `Cn1cc(-c2cc(-c3ccc(N4CCN(C(=O)Cc5ccn(C)n5)CC4)nc3)c3c(C#N)cnn3c2)cn1` [Example 42, 4-(6-(4-(2-(1-methyl-1H-pyrazol-3-yl)acetyl)piperazin-1-yl)pyridin-3-yl)-6-(1-methyl-1H-pyrazol-4-yl)pyrazolo[1,5-a]pyridine-3-carbonitrile 2,2,2-trifluoroacetate] the figure was 0.502 µM; with `Cn1cc(-c2cc(-c3ccc(N4CCN(C(=O)N5CCC(F)(F)C5)CC4)nc3)c3c(C#N)cnn3c2)cn1` [Example 101, 4-(6-(4-(3,3-difluoropyrrolidine-1-carbonyl)piperazin-1-yl)pyridin-3-yl)-6-(1-methyl-1H-pyrazol-4-yl)pyrazolo[1,5-a]pyridine-3-carbonitrile], 0.868 µM; with `C[C@@H]([C@@H](O)c1ccccc1)N1CCN(c2ccc(-c3cc(-c4cnn(C)c4)cn4ncc(C#N)c34)cn2)CC1` [Example 149, 4-(6-(4-((1S,2S)-1-hydroxy-1-phenylpropan-2-yl)piperazin-1-yl)pyridin-3-yl)-6-(1-methyl-1H-pyrazol-4-yl)pyrazolo[1,5-a]pyridine-3-carbonitrile], 0.563 µM. The same measure, in the same setting: with `Cn1cc(-c2cc(-c3ccc(N4[C@@H]5CC[C@H]4C[C@H](NC(=O)OC(C)(C)C)C5)nc3)c3c(C#N)cnn3c2)cn1` [Example 192, tert-butyl ((1R,3s,5S)-8-(5-(3-cyano-6-(1-methyl-1H-pyrazol-4-yl)pyrazolo[1,5-a]pyridin-4-yl)pyridin-2-yl)-8-azabicyclo[3.2.1]octan-3-yl)carbamate] the figure was 0.932 µM. The same measure, in the same setting: then `Cn1cc(-c2cc(-c3ccc(N4CCN(C(=O)C[C@@H](O)c5ccccc5)CC4)nc3)c3c(C#N)cnn3c2)cn1` [Example 7, (R)-4-(6-(4-(3-hydroxy-3-phenylpropanoyl)piperazin-1-yl)pyridin-3-yl)-6-(1-methyl-1H-pyrazol-4-yl)pyrazolo[1,5-a]pyridine-3-carbonitrile], with 0.115 µM; and `Cn1cc(-c2cc(-c3ccc(N4CCN(S(=O)(=O)N5CCCC5)CC4)nc3)c3c(C#N)cnn3c2)cn1` [Example 138, 6-(1-methyl-1H-pyrazol-4-yl)-4-(6-(4-(pyrrolidin-1-ylsulfonyl)piperazin-1-yl)pyridin-3-yl)pyrazolo[1,5-a]pyridine-3-carbonitrile], with 0.0161 µM; and `Cn1cc(-c2cc(-c3ccc(N4CC5CCC(C4)N5)nc3)c3c(C#N)cnn3c2)cn1` [Example 174, 4-(6-(3,8-diazabicyclo[3.2.1]octan-3-yl)pyridin-3-yl)-6-(1-methyl-1H-pyrazol-4-yl)pyrazolo[1,5-a]pyridine-3-carbonitrile dihydrochloride], with 1.22 µM. For the compound `N#Cc1cnn2cc(-c3cnn(C(F)F)c3)cc(-c3ccc(N4CCN(C(=O)[C@H](O)c5ccccc5)CC4)nc3)c12` [Example 268, (R)-6-(1-(difluoromethyl)-1H-pyrazol-4-yl)-4-(6-(4-(2-hydroxy-2-phenylacetyl)piperazin-1-yl)pyridin-3-yl)pyrazolo[1,5-a]pyridine-3-carbonitrile], the IC50 turned out to be 0.497 µM. On the same count and under the same terms, then `Cn1cc(-c2cc(-c3ccc(N4CCN(C(=O)c5cnccn5)CC4)nc3)c3c(C#N)cnn3c2)cn1` [Example 38, 6-(1-methyl-1H-pyrazol-4-yl)-4-(6-(4-(pyrazine-2-carbonyl)piperazin-1-yl)pyridin-3-yl)pyrazolo[1,5-a]pyridine-3-carbonitrile 2,2,2-trifluoroacetate], with 0.396 µM; and `Cn1cc(-c2cc(-c3ccc(N4CCN(C(=O)C(O)c5ccc(F)cc5F)CC4)nc3)c3ccnn3c2)cn1` (centres unmarked) [Example 317, 2-(2,4-difluorophenyl)-2-hydroxy-1-(4-(5-(6-(1-methyl-1H-pyrazol-4-yl)pyrazolo[1,5-a]pyridin-4-yl)pyridin-2-yl)piperazin-1-yl)ethanone], with not below 5 µM; and `CO[C@H]1CCN(C(=O)N2CCN(c3ncc(-c4cc(-c5cnn(C)c5)cn5ncc(C#N)c45)cn3)CC2)C1` [Example 286, (S)-4-(2-(4-(3-methoxypyrrolidine-1-carbonyl)piperazin-1-yl)pyrimidin-5-yl)-6-(1-methyl-1H-pyrazol-4-yl)pyrazolo[1,5-a]pyridine-3-carbonitrile], with 4.83 µM. With `CC(C)O[C@@H]1CCN(C(=O)N2CCN(c3ccc(-c4cc(-c5cnn(C)c5)cn5ncc(C#N)c45)cn3)CC2)C1` [Example 107, (R)-4-(6-(4-(3-isopropoxypyrrolidine-1-carbonyl)piperazin-1-yl)pyridin-3-yl)-6-(1-methyl-1H-pyrazol-4-yl)pyrazolo[1,5-a]pyridine-3-carbonitrile], the IC50 was determined as 0.893 µM. With `Cn1cc(-c2cc(-c3ccc(N4CCCC5(CCN(C(=O)OC(C)(C)C)C5)C4)nc3)c3c(C#N)cnn3c2)cn1` (centres unmarked) [Example 208, tert-butyl 7-(5-(3-cyano-6-(1-methyl-1H-pyrazol-4-yl)pyrazolo[1,5-a]pyridin-4-yl)pyridin-2-yl)-2,7-diazaspiro[4.5]decane-2-carboxylate], the IC50 was found to be 4.68 µM. Same read-out and setting: then `C[C@@H](O)Cn1cc(-c2cc(-c3ccc(N4CCN(C(=O)CC(C)(C)C)CC4)cc3)c3c(C#N)cnn3c2)cn1` [Example 305, (R)-4-(4-(4-(3,3-dimethylbutanoyl)piperazin-1-yl)phenyl)-6-(1-(2-hydroxypropyl)-1H-pyrazol-4-yl)pyrazolo[1,5-a]pyridine-3-carbonitrile], with 1.49 µM.

A word on the IC50: it is the concentration that inhibits the measured activity by half. Higher therefore signals weaker potency in that assay.

The record behind these values is patent US10023570B2 (Array BioPharma, Inc., priority 2015, dated 2018).
